# Laboratory results reported in PubChem BioAssay AID296 (DTP/NCI, 2004).
# Values joined by “and” are separate entries in the source; they are usually repeats but may differ in a detail not shown here. Identical values can stand only once. Records with an inconclusive call do not appear.
# Test system: MX-1 breast xenograft, nude mice, tumor weight T/C
# Test: NCI In Vivo Anticancer Drug Screen. Data for tumor model Human Mammary Carcinoma MX-1 Xenograft (intrarenal inoculation) in NU/NU Swiss (nude) mice
# Conditions: endpoint: mean tumor weight change, higher = larger tumour
# Method in brief: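 Activity is given as a ratio, with each measurement in the compound-treated arm divided by the matching measurement in vehicle-dosed controls. Tumour size or survival serves as the measured parameter.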
# [1] = dose: 25.0 mg/kg/injection, schedule: Q01DX010 (sc), vehicle: saline
# [2] = dose: 50.0 mg/kg/injection, schedule: Q01DX010 (sc), vehicle: saline
# [3] = dose: 300.0 mg/kg/injection, schedule: Q04DX003 (sc), vehicle: saline with Tween-80
# [4] = dose: 600.0 mg/kg/injection, schedule: Q04DX003 (sc), vehicle: saline with Tween-80
# [5] = dose: 1200.0 mg/kg/injection, schedule: Q04DX003 (sc), vehicle: saline with Tween-80
# [6] = dose: 100.0 mg/kg/injection, schedule: Q01DX010 (sc), vehicle: saline with Tween-80
# [7] = dose: 200.0 mg/kg/injection, schedule: Q01DX010 (sc), vehicle: saline with Tween-80
# [8] = dose: 400.0 mg/kg/injection, schedule: Q01DX010 (sc), vehicle: saline with Tween-80
structure (smiles),measurement,setting,value
CC[N](CC)[Ge]([CH2]C)[CH2]C.CC[N](CC)[Ge]([CH2]C)[CH2]C,T/C,"dose: 12.5 mg/kg/injection, schedule: Q01DX010 (sc), vehicle: saline",190 % of control
same,T/C,[1],106 % of control
same,T/C,[2],106 % of control
CC1(C)OC(=O)N(CO)C1=O,T/C,[1],45 % of control
same,T/C,[2],31 % of control
same,T/C,"dose: 100.0 mg/kg/injection, schedule: Q01DX010 (sc), vehicle: saline",48 % of control
same,T/C,"dose: 200.0 mg/kg/injection, schedule: Q01DX010 (sc), vehicle: saline",114 % of control
COC1C(O)CC(OC2CC(OC3CC(O[C@@H]4C(=O)c5c(cc6cc(OC7CC(OC8CC(O)C(O)C(C)O8)C(O)C(C)O7)c(C)c(O)c6c5O)C[C@H]4[C@H](OC)C(=O)[C@@H](O)[C@@H](C)O)OC(C)C3O)OC(C)C2O)OC1C (stereo not given in full),T/C,"dose: 0.18 mg/kg/injection, schedule: Q01DX010 (sc), vehicle: saline",99 % of control
same,T/C,"dose: 0.37 mg/kg/injection, schedule: Q04DX003 (sc), vehicle: saline",123 % of control
same,T/C,"dose: 0.75 mg/kg/injection, schedule: Q04DX003 (sc), vehicle: saline",90 % of control
same,T/C,"dose: 1.5 mg/kg/injection, schedule: Q04DX003 (sc), vehicle: saline",61 % of control
same,T/C,"dose: 3.0 mg/kg/injection, schedule: Q01DX010 (sc), vehicle: saline",-93 % of control
same,T/C,"dose: 3.0 mg/kg/injection, schedule: Q04DX003 (sc), vehicle: saline",35 % of control
C/C(=N\N=C(/[Se])N1CC2CCC(CC2)C1)c1ccccn1,T/C,"dose: 25.0 mg/kg/injection, schedule: Q04DX003 (sc), vehicle: Klucel (hydroxypropylcellulose) (HPC)",106 % of control
same,T/C,"dose: 50.0 mg/kg/injection, schedule: Q04DX003 (sc), vehicle: Klucel (hydroxypropylcellulose) (HPC)",110 % of control
C/C=C1\C[C@@H]2C(OC)Nc3cc(O)c(OC)cc3C(=O)N2C1 (stereo not given in full),T/C,"dose: 1.0 mg/kg/injection, schedule: Q04DX003 (sc), vehicle: saline",78 % of control
same,T/C,"dose: 2.0 mg/kg/injection, schedule: Q04DX003 (sc), vehicle: suspension in saline",23 % of control and 31 % of control
same,T/C,"dose: 4.0 mg/kg/injection, schedule: Q04DX003 (sc), vehicle: saline",7 % of control and 26 % of control
same,T/C,"dose: 4.0 mg/kg/injection, schedule: Q04DX003 (sc), vehicle: suspension in saline",1 % of control and 3 % of control
same,T/C,"dose: 8.0 mg/kg/injection, schedule: Q04DX003 (sc), vehicle: suspension in saline",-71 % of control
CCCCCCCCCCCCCCCCCCCCCC(=O)Nc1ccn(C2OC(CO)C(O)C2O)c(=O)n1 (stereo not given),T/C,[3],123 % of control
same,T/C,[4],87 % of control
same,T/C,[5],68 % of control
same,T/C,"dose: 2400.0 mg/kg/injection, schedule: Q04DX003 (sc), vehicle: saline with Tween-80",84 % of control
ClCCCN1CCN(CCCl)CC1,T/C,"dose: 7.5 mg/kg/injection, schedule: Q04DX003 (sc), vehicle: saline",8 % of control and 10 % of control and 31 % of control
COc1ccc([I+]c2cccc(Cl)c2)cc1Cl,T/C,"dose: 150.0 mg/kg/injection, schedule: Q04DX003 (sc), vehicle: saline with Tween-80",114 % of control
same,T/C,[3],100 % of control
same,T/C,[4],84 % of control
same,T/C,[5],41 % of control
COc1ccc2cc1Oc1ccc(cc1)C[C@H]1c3cc(c(OC)cc3CCN1C)Oc1c(OC)c(OC)cc3c1[C@H](C2)N(C)CC3,T/C,[6],115 % of control
same,T/C,[7],42 % of control
same,T/C,[8],83 % of control
same,T/C,"dose: 800.0 mg/kg/injection, schedule: Q01DX010 (sc), vehicle: saline with Tween-80",44 % of control
O=c1[nH]c(=O)n(C2CC(O)C(CO)O2)cc1I (stereo not given),T/C,[6],55 % of control
same,T/C,[7],38 % of control
same,T/C,[8],48 % of control
O=C(O)C1CSCN1 (stereo not given),T/C,"dose: 50.0 mg/kg/injection, schedule: Q01DX010 (sc), vehicle: water",176 % of control
CC1OC(=O)C(C(C)C)NC(=O)C(C(C)C)OC(=O)C(C(C)C)NC(=O)C(C)OC(=O)C(C(C)C)NC(=O)C(C(C)C)OC(=O)C(C(C)C)NC(=O)C(C)OC(=O)C(C(C)C)NC(=O)C(C(C)C)OC(=O)C(C(C)C)NC1=O (stereo not given),T/C,"dose: 2.5 mg/kg/injection, schedule: Q01DX010 (sc), vehicle: saline with Tween-80",84 % of control
same,T/C,"dose: 5.0 mg/kg/injection, schedule: Q01DX010 (sc), vehicle: saline with Tween-80",150 % of control
same,T/C,"dose: 10.0 mg/kg/injection, schedule: Q01DX010 (sc), vehicle: saline with Tween-80",95 % of control and 112 % of control
